Assay results as given in ChEMBL document CHEMBL5512597, “Triazole hybrid compounds: A new frontier in malaria treatment” (Eur J Med Chem, 2023).
pIC50: −log10 of the molar value. Converted amounts (≈) assume the structure as drawn. Each block holds one compound with its values, some of them ahead of it.

Legend:
[1] = test system: Plasmodium falciparum; experiment: Antiplasmodial activity against CQ-sensitive Plasmodium falciparum NF54; format: functional, organism-based
[2] = Cytotoxicity against African green monkey Vero cells; format: toxicity, cell-based; conditions: chlorocebus sabaeus
[3] = test system: Plasmodium falciparum; experiment: Antimalarial activity against Plasmodium falciparum 3D7 infected in erythrocytes assessed as parasite growth inhibition incubated for 42 hrs by [3H]-hypoxanthine incorporation assay; format: functional, organism-based; conditions: 3D7, Erythrocyte
[4] = test system: Plasmodium falciparum; experiment: Antimalarial activity against Plasmodium falciparum 3D7 assessed as inhibition of parasitemia incubated for 72 hrs by fluorescence based assay; format: functional, organism-based; conditions: 3D7, 72 h
[5] = test system: Plasmodium falciparum; experiment: Antiplasmodial activity against CQ-sensitive Plasmodium falciparum F32 Tanzania assessed as parasite growth inhibition incubated for 48 hrs; format: functional, organism-based
[6] = test system: Plasmodium falciparum; experiment: Antimalarial activity against Plasmodium falciparum […] incubated for 48 hrs; format: functional, organism-based

Structure (SMILES): CC1(C)[C@@H](O)CC[C@]2(C)[C@H]3C(=O)C=C4[C@@H]5C[C@@](C)(C(=O)OCc6cn(-c7ccc(C#N)cc7)nn6)CC[C@]5(C)CC[C@@]4(C)[C@]3(C)CC[C@@H]12
pIC50 [1]: 5.94
CC50 [2]: 190 µM

Structure (SMILES): COc1ccc2cc3[n+](cc2c1OCc1cn(-c2ccc(S(=O)(=O)N4CCN(c5ccccn5)CC4)cc2)nn1)CCc1cc2c(cc1-3)OCO2.[Cl-]
IC50 [3]: 1 µg/mL

Structure (SMILES): Cc1ccc(-n2cc(COC(=O)[C@@]3(C)CC[C@]4(C)CC[C@]5(C)C(=CC(=O)[C@@H]6[C@@]7(C)CC[C@H](O)C(C)(C)[C@@H]7CC[C@]65C)[C@@H]4C3)nn2)cc1Cl
pIC50 [1]: 5.39
CC50 [2]: 377 µM

Structure (SMILES): O=C1C=C(OCc2cn(-c3ccc(CO)cc3)nn2)C(=O)c2ccccc21
pIC50 [5]: 5.01

Structure (SMILES): O=C1C=C(OCc2cn(C3=CC(=O)c4ccccc4C3=O)nn2)C(=O)c2ccccc21
pIC50 [5]: 5.72

Structure (SMILES): COc1ccc2cc3[n+](cc2c1OCc1cn(-c2ccc(S(=O)(=O)Nc4ccc(Cl)cc4)cc2)nn1)CCc1cc2c(cc1-3)OCO2.[Cl-]
IC50 [3]: 0.1 µg/mL

Structure (SMILES): CC1(C)[C@@H](O)CC[C@]2(C)[C@H]3C(=O)C=C4[C@@H]5C[C@@](C)(C(=O)OCc6cn(-c7ccc([N+](=O)[O-])cc7)nn6)CC[C@]5(C)CC[C@@]4(C)[C@]3(C)CC[C@@H]12
pIC50 [1]: 5.57
CC50 [2]: 175 µM

Structure (SMILES): O=C1C=C(OCc2cn(-c3ccc(S)cc3)nn2)C(=O)c2ccccc21
pIC50 [5]: < 4.70

Structure (SMILES): CCCCCCCCCCCn1cc(COC2=CC(=O)c3ccccc3C2=O)nn1
pIC50 [5]: 4.77

Structure (SMILES): NC1=C(n2cc(COC3=CC(=O)c4ccccc4C3=O)nn2)C(=O)c2ccccc2C1=O
pIC50 [5]: < 4.70

Structure (SMILES): CC(=O)c1ccc(-n2cc(COC(=O)[C@@]3(C)CC[C@]4(C)CC[C@]5(C)C(=CC(=O)[C@@H]6[C@@]7(C)CC[C@H](O)C(C)(C)[C@@H]7CC[C@]65C)[C@@H]4C3)nn2)cc1
pIC50 [1]: < 5.00
CC50 [2]: 226 µM

Structure (SMILES): CC1(C)[C@@H](O)CC[C@]2(C)[C@H]3C(=O)C=C4[C@@H]5C[C@@](C)(C(=O)OCc6cn(-c7ccc(O)cc7[N+](=O)[O-])nn6)CC[C@]5(C)CC[C@@]4(C)[C@]3(C)CC[C@@H]12
pIC50 [1]: 6.33
CC50 [2]: 253 µM

Structure (SMILES): CCCCn1cc(COC2=CC(=O)c3ccccc3C2=O)nn1
pIC50 [5]: 4.95

Further lines, with some results ahead:

pIC50 [4]: 4.89
Structure (SMILES): CCOC(=O)c1cn(-c2ccccc2)nn1

pIC50 [4]: 4.93
Structure (SMILES): CCOCc1cn(-c2ccc(Cl)cc2)nn1

pIC50 [1]: 6.32
Structure (SMILES): CC1(C)[C@@H](O)CC[C@]2(C)[C@H]3C(=O)C=C4[C@@H]5C[C@@](C)(C(=O)OCc6cn(-c7ccc(Cl)cc7)nn6)CC[C@]5(C)CC[C@@]4(C)[C@]3(C)CC[C@@H]12
CC50 [2]: 391 µM

pIC50 [4]: 5.03
Structure (SMILES): Clc1ccc(N/N=C/c2cnn(-c3ccccc3)n2)cc1

IC50 [6]: 1.32 µg/mL (≈ 5.21 µM)
Structure (SMILES): Cc1nn(-c2ccccc2)c(-n2cncn2)c1C=O

pIC50 [1]: 5.05
Structure (SMILES): CC1(C)[C@@H](O)CC[C@]2(C)[C@H]3C(=O)C=C4[C@@H]5C[C@@](C)(C(=O)OCc6cn(-c7ccc(F)cc7)nn6)CC[C@]5(C)CC[C@@]4(C)[C@]3(C)CC[C@@H]12
CC50 [2]: 226 µM

IC50 [6]: 0.054 µg/mL (≈ 0.111 µM)
Structure (SMILES): Cc1nn(-c2ccccc2)c(-n2cncn2)c1-c1cc(-c2ccc(O)cc2)nc2nc3ccccc3n12

IC50 [6]: 0.092 µg/mL (≈ 0.201 µM)
Structure (SMILES): Cc1nn(-c2ccccc2)c(-n2cncn2)c1-c1cc(-c2cc[nH]c2)nc2nc3ccccc3n12

IC50 [6]: 0.83 µg/mL (≈ 1.75 µM)
Structure (SMILES): Cc1nn(-c2ccccc2)c(-n2cncn2)c1-c1cc(-c2cccs2)nc2nc3ccccc3n12

IC50 [6]: 1.45 µg/mL (≈ 3.09 µM)
Structure (SMILES): Cc1nn(-c2ccccc2)c(-n2cncn2)c1-c1cc(-c2ccccc2)nc2nc3ccccc3n12

pIC50 [1]: 5.46
Structure (SMILES): CC(=O)c1cccc(-n2cc(COC(=O)[C@@]3(C)CC[C@]4(C)CC[C@]5(C)C(=CC(=O)[C@@H]6[C@@]7(C)CC[C@H](O)C(C)(C)[C@@H]7CC[C@]65C)[C@@H]4C3)nn2)c1
CC50 [2]: 213 µM

pIC50 [4]: 4.56
Structure (SMILES): O=C(OCc1cnn(-c2ccccc2)n1)c1ccccc1

IC50 [6]: 1.5 µg/mL (≈ 3.11 µM)
Structure (SMILES): Cc1ccc(-c2cc(-c3c(C)nn(-c4ccccc4)c3-n3cncn3)n3c(n2)nc2ccccc23)cc1

IC50 [6]: 1.45 µg/mL (≈ 2.91 µM)
Structure (SMILES): COc1ccc(-c2cc(-c3c(C)nn(-c4ccccc4)c3-n3cncn3)n3c(n2)nc2ccccc23)cc1
